# Measurements taken from US8426588B2, “Phenylalanine derivatives” (Ajinomoto Co, Inc., priority 2000, dated 2013).
# Key:
# integrin α4β7 = target: T1, integrin α4β7 (Homo sapiens, UniProt P13612+P26010); test: VCAM antagonistic activity (VCAM-1/α4β7 binding assay), RPMI-8866 cells binding to VCAM-1; assay type: cell-based; conditions: RPMI-8866 human B lymphoma cells binding to recombinant human VCAM-1; binding buffer with 4 mM MnCl2
# T1 construct: lymphoma cell strain RPMI-8866 of human B cells, known to express integrin α4β7; endogenous in cells; host or cells: RPMI-8866
# T1 sequence (P13612 34-1032): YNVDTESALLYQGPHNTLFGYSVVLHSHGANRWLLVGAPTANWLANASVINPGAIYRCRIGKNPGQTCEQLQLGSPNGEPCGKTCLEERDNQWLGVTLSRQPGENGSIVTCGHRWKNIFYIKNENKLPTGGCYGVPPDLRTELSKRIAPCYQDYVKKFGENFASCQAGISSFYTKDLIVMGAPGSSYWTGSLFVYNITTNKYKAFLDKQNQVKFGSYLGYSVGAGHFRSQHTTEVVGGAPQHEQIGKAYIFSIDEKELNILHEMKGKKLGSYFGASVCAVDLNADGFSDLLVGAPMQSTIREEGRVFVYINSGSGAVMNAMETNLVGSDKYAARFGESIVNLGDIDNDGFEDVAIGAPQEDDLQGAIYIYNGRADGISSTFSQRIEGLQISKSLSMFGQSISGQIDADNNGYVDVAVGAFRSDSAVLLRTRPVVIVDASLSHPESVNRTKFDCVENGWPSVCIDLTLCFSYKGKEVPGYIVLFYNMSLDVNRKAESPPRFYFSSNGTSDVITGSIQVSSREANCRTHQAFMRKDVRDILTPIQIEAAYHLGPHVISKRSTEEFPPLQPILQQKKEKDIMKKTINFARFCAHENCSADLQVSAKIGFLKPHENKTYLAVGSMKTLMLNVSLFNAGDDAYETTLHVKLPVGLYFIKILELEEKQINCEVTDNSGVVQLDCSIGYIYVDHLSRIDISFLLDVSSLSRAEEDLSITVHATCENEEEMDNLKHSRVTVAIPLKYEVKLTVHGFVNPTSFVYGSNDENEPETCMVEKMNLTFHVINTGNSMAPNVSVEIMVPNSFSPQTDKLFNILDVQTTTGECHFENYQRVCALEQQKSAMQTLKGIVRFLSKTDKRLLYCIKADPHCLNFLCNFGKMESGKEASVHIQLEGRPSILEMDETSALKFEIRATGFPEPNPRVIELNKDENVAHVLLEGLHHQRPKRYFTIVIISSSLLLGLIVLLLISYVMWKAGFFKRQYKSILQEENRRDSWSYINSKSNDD
# T1 sequence (P26010 20-798): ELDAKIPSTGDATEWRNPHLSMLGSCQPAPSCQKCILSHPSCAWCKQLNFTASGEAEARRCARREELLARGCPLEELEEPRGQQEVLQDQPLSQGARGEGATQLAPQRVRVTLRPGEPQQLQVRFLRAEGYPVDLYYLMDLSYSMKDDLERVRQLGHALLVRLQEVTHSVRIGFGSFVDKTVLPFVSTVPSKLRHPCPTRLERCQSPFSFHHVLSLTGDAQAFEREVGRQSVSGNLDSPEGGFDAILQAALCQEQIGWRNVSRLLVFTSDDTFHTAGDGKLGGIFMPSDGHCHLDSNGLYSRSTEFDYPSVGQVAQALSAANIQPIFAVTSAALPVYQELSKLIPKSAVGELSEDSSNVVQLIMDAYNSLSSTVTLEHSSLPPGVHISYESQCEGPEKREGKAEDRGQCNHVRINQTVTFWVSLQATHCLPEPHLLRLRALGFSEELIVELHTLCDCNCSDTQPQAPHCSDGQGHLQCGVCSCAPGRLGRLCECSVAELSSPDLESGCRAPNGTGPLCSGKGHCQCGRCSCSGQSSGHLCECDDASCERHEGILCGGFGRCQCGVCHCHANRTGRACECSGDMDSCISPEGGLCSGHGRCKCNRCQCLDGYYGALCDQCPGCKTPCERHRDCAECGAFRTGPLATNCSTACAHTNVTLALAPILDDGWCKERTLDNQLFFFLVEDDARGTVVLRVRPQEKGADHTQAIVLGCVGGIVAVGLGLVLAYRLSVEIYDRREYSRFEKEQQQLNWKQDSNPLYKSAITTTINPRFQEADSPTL
# Method: VCAM Antagonistic Activity (VCAM-1/α4β7 Binding Assay)
# The capacity of a test substance antagonistic to the binding of lymphoma cell strain RPMI-8866 of human B cells, known to express integrin α4β7, to VCAM-1 was determined.
# (§1) 100 μl/well of a solution (500 ng/ml) of recombinant human VCAM-1 (R & D systems) solution diluted with buffer A (0.1 M NaHCO3, pH 9.6) was added to a micro titer plate having 96 wells (Nunc Maxisorp). After the incubation at 4° C. overnight, unbound VCAM-1 was removed by washing once with PBS. After completion of the washing, a buffer (buffer B) obtained by diluting Block Ace (Dainippon Pharmaceutical Co., Ltd.) with PBS to ¼ concentration was added in an amount of 150 μl/well. After the incubation at room temperature for 1 hour, buffer B was removed and the plate was washed with PBS once.
# RPMI-8866 cells were washed with DMEM twice and incubated in Dulbecco modified Eagle medium containing 10 μg/ml of Calcein-AM (Wako Pure Chemical Industries, Ltd.) (SIGMA, hereinafter referred to as “DMEM”) in dark place at 37° C. for 30 minutes to label with fluorescence. The cells were again suspended in a binding buffer (20 mM HEPES, DMEM containing 0.1% BSA) containing 4 mM of MnCl2.
# (§2) 50 μl of a test substance of various concentrations obtained by the dilution with the binding buffer was added to the plate. Immediately thereafter, 50 μl (final volume: 100 μl/well) of the fluorescent RPMI-8866 cells (4×10^6 cells/ml) were added thereto, and they were incubated in dark place at room temperature for 30 minutes. After the shaking on a plate shaker (IKA MTS-4) at 800 rpm for 30 seconds, the solution was immediately removed to remove the unbound cells. The fluorescence quantity of the bound cells remaining in the wells was determined with a fluorescent plate reader (Wallac 1420 ARVO multi-label counter) (filter excitation wave length: 485 nm, emission wave length: 535 nm). The fluorescent strength thus obtained is proportional to the number of RPMI-8866 cells bound to VCAM-1 and remaining on the plate. The binding rate of each test material in various concentrations was determined while the fluorescent strength of the test material-free well was determined to be 100%.
# integrin α4β1 = target: T2, integrin α4β1 (Homo sapiens, UniProt P05556+P13612); test: VCAM antagonist activity (VCAM-1/α4β1 binding assay), Jurkat cells binding to VCAM-1; assay type: cell-based; conditions: Jurkat human T cells binding to recombinant human VCAM-1; read-out: VCAM antagonistic activity (IC50) α4β1
# T2 construct: cell strain Jurkat (ATCC TIB-152) of human T cells, known to express integrin α4β1; endogenous in cells; host or cells: Jurkat (ATCC TIB-152)
# Method: VCAM Antagonist Activity (VCAM-1/α4β1 Binding Assay)
# The capacity of a test substance antagonistic to the binding of cell strain Jurkat (ATCC TIB-152) of human T cells, known to express integrin α4β1, to VCAM-1 was determined.
# as §1
# Jurkat cells were washed with Dulbecco modified Eagle medium (SIGMA, hereinafter referred to as “DMEM”) twice and then incubated in DMEM containing 10 μg/ml of Calcein-AM (Wako Pure Chemical Industries, Ltd.) at 37° C. in dark place for 30 minutes to label with fluorescence. The cells were again suspended in a binding buffer (20 mM HEPES, DMEM containing 0.1% BSA).
# as §2, with “Jurkat” for “RPMI-8866”, “1920” for “1420”
# T2 sequence (P05556 21-798, one chain of several): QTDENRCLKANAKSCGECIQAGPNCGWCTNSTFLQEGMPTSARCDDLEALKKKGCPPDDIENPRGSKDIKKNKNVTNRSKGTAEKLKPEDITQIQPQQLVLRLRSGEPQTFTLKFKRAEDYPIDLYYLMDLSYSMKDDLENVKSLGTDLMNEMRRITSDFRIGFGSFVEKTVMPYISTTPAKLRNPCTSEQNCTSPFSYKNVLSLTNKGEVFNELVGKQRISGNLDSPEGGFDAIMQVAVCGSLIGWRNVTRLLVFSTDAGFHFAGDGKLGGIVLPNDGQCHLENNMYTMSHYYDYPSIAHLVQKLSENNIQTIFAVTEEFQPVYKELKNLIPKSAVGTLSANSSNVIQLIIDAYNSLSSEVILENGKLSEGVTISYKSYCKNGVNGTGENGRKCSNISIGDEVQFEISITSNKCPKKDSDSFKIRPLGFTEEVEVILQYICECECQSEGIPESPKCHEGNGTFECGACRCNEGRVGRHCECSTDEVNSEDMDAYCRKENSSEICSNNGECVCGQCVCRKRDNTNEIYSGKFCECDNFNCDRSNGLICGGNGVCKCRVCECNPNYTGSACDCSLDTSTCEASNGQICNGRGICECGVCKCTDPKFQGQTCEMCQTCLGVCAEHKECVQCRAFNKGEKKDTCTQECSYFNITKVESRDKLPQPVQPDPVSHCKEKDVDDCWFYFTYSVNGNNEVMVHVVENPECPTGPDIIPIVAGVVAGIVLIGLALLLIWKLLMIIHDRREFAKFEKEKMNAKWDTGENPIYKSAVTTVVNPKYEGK
Compound,IC50 (integrin α4β7) [nM],IC50 (integrin α4β1) [nM]
Cc1cccc2[nH]c(=O)n(-c3ccc(C[C@H](NC(=O)c4c(Cl)cccc4Cl)C(=O)O)cc3)c(=O)c12 [Example 53],66.1,2460
O=C(N[C@@H](Cc1ccc(-n2c(=O)[nH]c3cccc(Cl)c3c2=O)cc1)C(=O)O)c1c(Cl)cccc1Cl [Example 54],9.8,71
CC(C)n1c(=O)n(-c2ccc(C[C@H](NC(=O)c3c(Cl)cccc3Cl)C(=O)O)cc2)c(=O)c2cc([N+](=O)[O-])ccc21 [Example 57],29.9,639
O=C(N[C@@H](Cc1ccc(-n2c(=O)c3cc([N+](=O)[O-])ccc3n(C3CCC3)c2=O)cc1)C(=O)O)c1c(Cl)cccc1Cl [Example 59],35.8,540
O=C(N[C@@H](Cc1ccc(-n2c(=O)c3cc([N+](=O)[O-])ccc3n(C3CCCC3)c2=O)cc1)C(=O)O)c1c(Cl)cccc1Cl [Example 60],36.1,780
CC(C)Cn1c(=O)n(-c2ccc(C[C@H](NC(=O)c3c(Cl)cccc3Cl)C(=O)O)cc2)c(=O)c2cc([N+](=O)[O-])ccc21 [Example 61],42,1150
O=C(N[C@@H](Cc1ccc(-n2c(=O)c3cc([N+](=O)[O-])ccc3n(CC3CCCCC3)c2=O)cc1)C(=O)O)c1c(Cl)cccc1Cl [Example 62],45,1450
Cn1c(=O)n(-c2ccc(C[C@H](NC(=O)c3c(Cl)cccc3Cl)C(=O)O)cc2)c(=O)c2cc([N+](=O)[O-])ccc21 [Example 63],1.3,28
O=C(N[C@@H](Cc1ccc(-n2c(=O)c3cc([N+](=O)[O-])ccc3n(Cc3ccccc3)c2=O)cc1)C(=O)O)c1c(Cl)cccc1Cl [Example 65],7,330
Cn1c(=S)n(-c2ccc(C[C@H](NC(=O)c3c(Cl)cccc3Cl)C(=O)O)cc2)c(=O)c2cc([N+](=O)[O-])ccc21 [Example 66],1.3,170
CCn1c(=S)n(-c2ccc(C[C@H](NC(=O)c3c(Cl)cccc3Cl)C(=O)O)cc2)c(=O)c2cc([N+](=O)[O-])ccc21 [Example 67],2.2,370
O=C(N[C@@H](Cc1ccc(-n2c(=O)c3cc([N+](=O)[O-])ccc3n(C3CC3)c2=S)cc1)C(=O)O)c1c(Cl)cccc1Cl [Example 68],1.5,350
O=C(N[C@@H](Cc1ccc(-n2c(=O)c3cc([N+](=O)[O-])ccc3n(Cc3ccccc3)c2=S)cc1)C(=O)O)c1c(Cl)cccc1Cl [Example 69],2.5,5630
Cn1c(=O)n(-c2ccc(C[C@H](NC(=O)c3c(Cl)cccc3Cl)C(=O)O)cc2)c(=O)c2c(Cl)ccc(Cl)c21 [Example 70],3.5,34
Cn1c(=O)n(-c2ccc(C[C@H](NC(=O)c3c(Cl)cccc3Cl)C(=O)O)cc2)c(=O)c2cc(Cl)cc(Cl)c21 [Example 71],11,185
Cn1c(=O)n(-c2ccc(C[C@H](NC(=O)c3c(Cl)cccc3Cl)C(=O)O)cc2)c(=O)c2ccc(F)cc21 [Example 72],2.6,27
Cn1c(=O)n(-c2ccc(C[C@H](NC(=O)c3c(Cl)cccc3Cl)C(=O)O)cc2)c(=O)c2cccnc21 [Example 74],2.5,53
O=C(N[C@@H](Cc1ccc(-n2c(=O)[nH]c3nccnc3c2=O)cc1)C(=O)O)c1c(Cl)cccc1Cl [Example 80],74,960
O=C(N[C@@H](Cc1ccc(-n2nnc3c(Cl)ccc(Cl)c3c2=O)cc1)C(=O)O)c1c(Cl)cccc1Cl [Example 81],8.6,72
O=C(N[C@@H](Cc1ccc(-n2nnc3ccccc3c2=O)cc1)C(=O)O)c1c(Cl)cccc1Cl [Example 90],43.7,511
CCOc1nc2ccc(Cl)cc2c(=O)n1-c1ccc(C[C@H](NC(=O)c2c(Cl)cccc2Cl)C(=O)O)cc1 [Example 93],4.8,4030
CCOc1nc2cc(F)ccc2c(=O)n1-c1ccc(C[C@H](NC(=O)c2c(Cl)cccc2Cl)C(=O)O)cc1 [Example 95],1.8,960
Cc1cccc2c1c(=O)n(-c1ccc(C[C@H](NC(=O)c3c(Cl)cccc3Cl)C(=O)O)cc1)c(=O)n2Cc1ccccc1 [Example 97],13,1500
CC(=O)Nc1ccc2c(c1)c(=O)n(-c1ccc(C[C@H](NC(=O)c3c(Cl)cccc3Cl)C(=O)O)cc1)c(=O)n2C [Example 104],1.4,16
